From PubChem BioAssay AID1745844 (Carcinogenic Potency Database (CPDB), 2022)
Activity calls are given as the source filed them. How the calls were made is not given here.

System: rodent lifetime carcinogenesis bioassay, tumor incidence TD50
Test: chronic cancer bioassays in animals – CPDB, compiled studies (AID 1745844)

CN(C)C(=S)S[Se](SC(=S)N(C)C)(SC(=S)N(C)C)SC(=S)N(C)C
inactive: carcinogen call (mouse, strain B6AKF1, females, oral dosing, site: any site (literature study), lesion: several types, types named in the paper, dosed 76 weeks, study length 76 weeks) negative | carcinogen call (mouse, strain B6AKF1, females, oral dosing, site: liver, lesion: hepatoma, dosed 76 weeks, study length 76 weeks) negative | carcinogen call (mouse, strain B6AKF1, females, oral dosing, site: lung, lesion: adenoma, dosed 76 weeks, study length 76 weeks) negative | carcinogen call (mouse, strain B6AKF1, males, oral dosing, site: any site (literature study), lesion: several types, types named in the paper, dosed 76 weeks, study length 76 weeks) negative | carcinogen call (mouse, strain B6AKF1, males, oral dosing, site: liver, lesion: hepatoma, dosed 76 weeks, study length 76 weeks) negative | carcinogen call (mouse, strain B6AKF1, males, oral dosing, site: lung, lesion: adenoma, dosed 76 weeks, study length 76 weeks) negative | carcinogen call (mouse, strain B6C3F1, females, oral dosing, site: any site (literature study), lesion: one or several types, types not named, dosed 76 weeks, study length 76 weeks) negative | carcinogen call (mouse, strain B6C3F1, females, oral dosing, site: liver, lesion: hepatoma, dosed 76 weeks, study length 76 weeks) negative | carcinogen call (mouse, strain B6C3F1, females, oral dosing, site: lung, lesion: several types, types named in the paper, dosed 76 weeks, study length 76 weeks) negative | TD50 (mouse, strain B6C3F1, males, oral dosing, site: any site (literature study), lesion: several types, types named in the paper, dosed 76 weeks, study length 76 weeks) 5.88 mg/kg/day | TD50 (mouse, strain B6C3F1, males, oral dosing, site: liver, lesion: hepatoma, dosed 76 weeks, study length 76 weeks) 26 mg/kg/day | carcinogen call (mouse, strain B6C3F1, males, oral dosing, site: lung, lesion: several types, types named in the paper, dosed 76 weeks, study length 76 weeks) negative

Brc1cc(Br)c(-c2c(Br)c(Br)c(Br)c(Br)c2Br)c(Br)c1Br
4.9 mg/kg/day: TD50 (mouse, strain B6C3F1, females, in feed, site: any site (literature study), lesion: several types, types named in the paper, dosed 78 weeks, study length 78 weeks)
active: TD50 (mouse, strain B6C3F1, females, in feed, site: liver, lesion: hepatocellular carcinoma, dosed 78 weeks, study length 78 weeks) 13.7 mg/kg/day | TD50 (mouse, strain B6C3F1, females, in feed, site: liver, lesion: neoplastic nodule, dosed 78 weeks, study length 78 weeks) 4.89 mg/kg/day | TD50 (mouse, strain B6C3F1, males, in feed, site: liver, lesion: hepatoblastoma, dosed 78 weeks, study length 78 weeks) 35.4 mg/kg/day | TD50 (mouse, strain B6C3F1, males, in feed, site: liver, lesion: hepatocellular carcinoma, dosed 78 weeks, study length 78 weeks) 3.44 mg/kg/day | TD50 (mouse, strain B6C3F1, males, in feed, site: liver, lesion: neoplastic nodule, dosed 78 weeks, study length 78 weeks) 2.86 mg/kg/day
2.07 mg/kg/day: TD50 (mouse, strain B6C3F1, males, in feed, site: any site (literature study), lesion: several types, types named in the paper, dosed 78 weeks, study length 78 weeks)

CC1CN(N=O)CC(C)N1N=O (centres undefined)
8.3 mg/kg/day: TD50 (hamster, strain Syrian Golden, males, by gavage, site: liver, lesion: angiosarcoma, dosed 35 weeks, study length 76 weeks)
0.932 mg/kg/day: TD50 (hamster, strain Syrian Golden, males, by gavage, site: any site (literature study), lesion: several types, types named in the paper, dosed 35 weeks, study length 76 weeks)
6.04 mg/kg/day: TD50 (hamster, strain Syrian Golden, males, by gavage, site: lung, lesion: adenoma, dosed 35 weeks, study length 76 weeks)
active: TD50 (hamster, strain Syrian Golden, males, by gavage, site: forestomach, lesion: papilloma, dosed 35 weeks, study length 76 weeks) 3.1 mg/kg/day

COC(=O)[C@H]1[C@H]2C[C@@H]3c4[nH]c5cc(OC)ccc5c4CCN3C[C@H]2C[C@@H](OC(=O)c2cc(OC)c(OC)c(OC)c2)[C@@H]1OC
6.77 mg/kg/day: TD50 (rat, strain Fischer 344, males, in feed, site: liver, lesion: hepatocellular adenoma + hepatocellular carcinoma + neoplastic nodule, dosed 103 weeks, study length 104 weeks)
0.0342 mg/kg/day: TD50 (mouse, strain C3H (MTV+), females, in feed, site: mammary gland, lesion: adenocarcinoma, dosed 104 weeks, study length 104 weeks)
inactive: TD50 (rat, strain Fischer 344, females, in feed, site: any site (literature study), lesion: several types, types named in the paper, dosed 103 weeks, study length 104 weeks) 0.727 mg/kg/day | carcinogen call (rat, strain Wistar, females, in feed, site: mammary gland, lesion: fibroadenoma, dosed 75 weeks, study length 75 weeks) negative | carcinogen call (rat, strain Wistar, females, in feed, site: pituitary gland, lesion: several types, types named in the paper, dosed 75 weeks, study length 75 weeks) negative | TD50 (rat, strain Wistar, males, in feed, site: pituitary gland, lesion: adenoma, dosed 75 weeks, study length 75 weeks) 38.3 mg/kg/day
6.42 mg/kg/day: TD50 (mouse, strain B6C3F1, females, in feed, site: any site (literature study), lesion: several types, types named in the paper, dosed 103 weeks, study length 104 weeks)
54.5 mg/kg/day: TD50 (mouse, strain B6C3F1, females, in feed, site: lung, lesion: alveolar/bronchiolar adenoma + alveolar/bronchiolar carcinoma, dosed 103 weeks, study length 104 weeks)
active: TD50 (mouse, strain B6C3F1, females, in feed, site: mammary gland, lesion: all tumors, dosed 103 weeks, study length 104 weeks) 3.58 mg/kg/day | TD50 (mouse, strain B6C3F1, males, in feed, site: seminal vesicle, lesion: undifferentiated carcinoma, dosed 103 weeks, study length 104 weeks) 8.39 mg/kg/day | TD50 (rat, strain Fischer 344, males, in feed, site: adrenal gland, lesion: pheochromocytoma + pheochromocytoma, malignant, dosed 103 weeks, study length 104 weeks) 0.306 mg/kg/day
5.46 mg/kg/day: TD50 (mouse, strain B6C3F1, males, in feed, site: liver, lesion: hepatocellular adenoma + hepatocellular carcinoma + neoplastic nodule, dosed 103 weeks, study length 104 weeks)

CCN(CC)C(=O)Nc1ccc(OCC(O)CNC(C)(C)C)c(C(C)=O)c1 (centres undefined)
inactive: TD50 (mouse, strain Charles River CD1, females, in feed, site: lung, lesion: several types, types named in the paper, dosed 104 weeks, study length 104 weeks) 8020 mg/kg/day | TD50 (mouse, strain Charles River CD1, males, in feed, site: lung, lesion: several types, types named in the paper, dosed 104 weeks, study length 104 weeks) 4710 mg/kg/day | TD50 (rat, strain Sprague-Dawley, females, in feed, site: any site (literature study), lesion: several types, types named in the paper, dosed 104 weeks, study length 104 weeks) 2480 mg/kg/day | TD50 (rat, strain Sprague-Dawley, females, in feed, site: liver, lesion: hepatocellular adenoma, dosed 104 weeks, study length 104 weeks) 38100 mg/kg/day | TD50 (rat, strain Sprague-Dawley, females, in feed, site: liver, lesion: hepatocellular carcinoma, dosed 104 weeks, study length 104 weeks) 38100 mg/kg/day | TD50 (rat, strain Sprague-Dawley, males, in feed, site: any site (literature study), lesion: several types, types named in the paper, dosed 104 weeks, study length 104 weeks) 684 mg/kg/day | TD50 (rat, strain Sprague-Dawley, males, in feed, site: liver, lesion: hepatocellular adenoma, dosed 104 weeks, study length 104 weeks) 12400 mg/kg/day | carcinogen call (rat, strain Sprague-Dawley, males, in feed, site: liver, lesion: hepatocellular carcinoma, dosed 104 weeks, study length 104 weeks) negative

Oc1cccc(O)c1
213 mg/kg/day: TD50 (rat, strain Fischer 344, males, by gavage, site: any site (literature study), lesion: several types, types named in the paper, dosed 103 weeks, study length 104 weeks)
inactive: TD50 (mouse, strain B6C3F1, females, by gavage, site: any site (literature study), lesion: several types, types named in the paper, dosed 104 weeks, study length 104 weeks) 1880 mg/kg/day | carcinogen call (mouse, strain B6C3F1, males, by gavage, site: any site (literature study), lesion: several types, types named in the paper, dosed 104 weeks, study length 104 weeks) negative | TD50 (rat, strain Fischer 344, females, by gavage, site: any site (literature study), lesion: several types, types named in the paper, dosed 103 weeks, study length 104 weeks) 219 mg/kg/day | TD50 (rat, strain Fischer 344, males, by gavage, site: testis, lesion: interstitial-cell adenoma, dosed 103 weeks, study length 104 weeks) 84 mg/kg/day
6800 mg/kg/day: TD50 (mouse, strain B6C3F1, males, by gavage, site: lung, lesion: alveolar/bronchiolar adenoma + alveolar/bronchiolar carcinoma, dosed 104 weeks, study length 104 weeks)
1560 mg/kg/day: TD50 (mouse, strain B6C3F1, females, by gavage, site: liver, lesion: hepatocellular adenoma + hepatocellular carcinoma + neoplastic nodule, dosed 104 weeks, study length 104 weeks)
1350 mg/kg/day: TD50 (mouse, strain B6C3F1, females, by gavage, site: lung, lesion: alveolar/bronchiolar adenoma + alveolar/bronchiolar carcinoma, dosed 104 weeks, study length 104 weeks)

CNCCc1ccc(OC(=O)C(C)C)c(OC(=O)C(C)C)c1
inactive: carcinogen call (rat, strain Charles River CD (Sprague-Dawley), females, by gavage, site: adrenal gland, lesion: cortical adenoma, dosed 104 weeks, study length 104 weeks) negative | carcinogen call (rat, strain Charles River CD (Sprague-Dawley), females, by gavage, site: adrenal gland, lesion: pheochromocytoma, malignant, dosed 104 weeks, study length 104 weeks) negative | carcinogen call (rat, strain Charles River CD (Sprague-Dawley), females, by gavage, site: mammary gland, lesion: adenocarcinoma, dosed 104 weeks, study length 104 weeks) negative | carcinogen call (rat, strain Charles River CD (Sprague-Dawley), females, by gavage, site: mammary gland, lesion: adenoma, dosed 104 weeks, study length 104 weeks) negative | carcinogen call (rat, strain Charles River CD (Sprague-Dawley), females, by gavage, site: pituitary gland, lesion: adenoma, dosed 104 weeks, study length 104 weeks) negative | carcinogen call (rat, strain Charles River CD (Sprague-Dawley), males, by gavage, site: adrenal gland, lesion: cortical adenoma, dosed 104 weeks, study length 104 weeks) negative | carcinogen call (rat, strain Charles River CD (Sprague-Dawley), males, by gavage, site: adrenal gland, lesion: pheochromocytoma, malignant, dosed 104 weeks, study length 104 weeks) negative | TD50 (rat, strain Charles River CD (Sprague-Dawley), males, by gavage, site: pituitary gland, lesion: adenoma, dosed 104 weeks, study length 104 weeks) 30.2 mg/kg/day

CC(C)O
inactive: carcinogen call (mouse, strain Charles River CD1, females, inhaled, site: kidney, lesion: one or several types, types not named, dosed 54 weeks, study length 54 weeks) negative | carcinogen call (mouse, strain Charles River CD1, females, inhaled, site: kidney, lesion: one or several types, types not named, dosed 78 weeks, study length 78 weeks) negative | carcinogen call (mouse, strain Charles River CD1, males, inhaled, site: kidney, lesion: one or several types, types not named, dosed 54 weeks, study length 54 weeks) negative | carcinogen call (mouse, strain Charles River CD1, males, inhaled, site: kidney, lesion: one or several types, types not named, dosed 78 weeks, study length 78 weeks) negative | carcinogen call (rat, strain Fischer 344, females, inhaled, site: kidney, lesion: one or several types, types not named, dosed 72 weeks, study length 73 weeks) negative | carcinogen call (rat, strain Fischer 344, females, inhaled, site: kidney, lesion: one or several types, types not named, dosed 104 weeks, study length 104 weeks) negative | carcinogen call (rat, strain Fischer 344, males, inhaled, site: kidney, lesion: one or several types, types not named, dosed 72 weeks, study length 73 weeks) negative | carcinogen call (rat, strain Fischer 344, males, inhaled, site: kidney, lesion: one or several types, types not named, dosed 102 weeks, study length 104 weeks) negative | TD50 (rat, strain Fischer 344, males, inhaled, site: testis, lesion: interstitial-cell adenoma, dosed 72 weeks, study length 73 weeks) 456 mg/kg/day | TD50 (rat, strain Fischer 344, males, inhaled, site: testis, lesion: interstitial-cell adenoma, dosed 102 weeks, study length 104 weeks) 46.4 mg/kg/day
